# Patent publication US9708336B2, “Metallo-beta-lactamase inhibitors” (priority 2014, dated 2017)
# Where two headings read alike, the source gives them in different places.
# What was measured:
# NDM-1 = NDM-1 (Klebsiella pneumoniae, UniProt C7C422); assay: biochemical; type: biochemical; conditions: read-out: NDM-1 IC50
# IMP-1 = IMP-1 (Serratia marcescens, UniProt P52699); assay: biochemical; type: biochemical; conditions: read-out: IMP-1 IC50
# VIM-1 = VIM-1 (Pseudomonas aeruginosa (strain ATCC 15692 / DSM 22644 / CIP 104116 / JCM 14847 / LMG 12228 / 1C / PRS 101 / PAO1), UniProt A0A0F7KYQ8); assay: Enzyme activity: determination of IC50, fluorescence assay with CCF2-FA substrate (VIM-1); type: biochemical
# Protocol: Enzyme Activity: Determination of IC50
# The Class B enzyme activities were measured in the presence of the test inhibitor in a fluorescence assay against a commercially available substrate consisting of a cephalosporin core linking 7-hydroxycoumarin to fluorescein (CCF2-FA). The enzyme (NDM-1, IMP-1 or VIM-1) and the substrate were diluted in 100 mM KH2PO4 buffer (pH 7) containing 0.005% Tween-20 and 10 μM ZnSO4. […] The test inhibitor was dissolved in dimethylsulfoxide and diluted 1:50 in the assay, resulting in a final concentration range of 20 uM to 0.00063 uM. In a 384-well microplate, the test inhibitor was incubated with the metallo-β-lactamase enzyme and the substrate for 2 hours at 25° C. Fluorescence at 460 nm following excitation at 405 nm was measured. The IC50 value was determined from semi-logarithmic plots of enzyme inhibition versus inhibitor concentration, with a curve generated using a 4-parameter fit.
# [1] = test system: Escherichia coli expressing NDM-1 (CLB30016); assay: Antibiotic potentiation activity: synergistic concentration (MITC95) with imipenem, OD600 growth; type: cell-based
# In short: (§1)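 Inoculum: saline suspension of overnight colonies, 1:100 into 1.1× CAMHB. Imipenem 4 μg/ml final (alt. 1 μg/ml) + compound; 35 °C, 22–24 h; absorbance read-out.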
# [2] = test system: Klebsiella pneumoniae expressing VIM-1 (IHMA599644); assay: as above; type: cell-based
# In short: as §1
# [3] = test system: Serratia marcescens expressing IMP-1 (CL5741); assay: as above; type: cell-based
# In short: as §1
# [4] = NDM-1 enzyme, CCF2-FA substrate
# [5] = IMP-1 enzyme, CCF2-FA substrate
# [6] = VIM-1 enzyme, CCF2-FA substrate, read-out: VIM-1 IC50
# [7] = (CLB30016, NDM-1), 95% growth inhibition
# [8] = Klebsiella pneumoniae IHMA599644 (VIM-1), 95% growth inhibition
# [9] = Serratia marcescens CL5741 (IMP-1), 95% growth inhibition
# [10] = fluorescence assay with CCF2-FA substrate
# [11] = fluorescence assay with CCF2-FA substrate, read-out: VIM-1 IC50
# [12] = CLB30016 (NDM-1), 95% inhibition of bacterial growth
# [13] = IHMA599644 (VIM-1), 95% inhibition of bacterial growth
# [14] = CL5741 (IMP-1), 95% inhibition of bacterial growth
# [15] = NDM-1 enzyme, CCF2-FA fluorescence assay
# [16] = IMP-1 enzyme, CCF2-FA fluorescence assay
# [17] = VIM-1 enzyme, CCF2-FA fluorescence assay, read-out: VIM-1 IC50
# [18] = Escherichia coli expressing NDM-1 (CLB30016), 95% growth inhibition
# [19] = Klebsiella pneumoniae expressing VIM-1 (IHMA599644), 95% growth inhibition
# [20] = Serratia marcescens expressing IMP-1 (CL5741), 95% growth inhibition
# [21] = VIM-1 IC50, VIM-1 enzyme, CCF2-FA substrate
# [22] = concentration giving 95% inhibition of bacterial growth
# Sequence of IMP-1 (P52699 whole entry, looked up): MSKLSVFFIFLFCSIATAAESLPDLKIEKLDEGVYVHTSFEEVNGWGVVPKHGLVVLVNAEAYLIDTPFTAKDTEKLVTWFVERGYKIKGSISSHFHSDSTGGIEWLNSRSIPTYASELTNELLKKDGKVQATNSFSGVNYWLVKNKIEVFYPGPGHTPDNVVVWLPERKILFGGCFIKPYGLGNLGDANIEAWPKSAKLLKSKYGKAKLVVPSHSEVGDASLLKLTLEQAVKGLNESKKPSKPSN
# Sequence of NDM-1 (C7C422 whole entry, looked up, species assumed): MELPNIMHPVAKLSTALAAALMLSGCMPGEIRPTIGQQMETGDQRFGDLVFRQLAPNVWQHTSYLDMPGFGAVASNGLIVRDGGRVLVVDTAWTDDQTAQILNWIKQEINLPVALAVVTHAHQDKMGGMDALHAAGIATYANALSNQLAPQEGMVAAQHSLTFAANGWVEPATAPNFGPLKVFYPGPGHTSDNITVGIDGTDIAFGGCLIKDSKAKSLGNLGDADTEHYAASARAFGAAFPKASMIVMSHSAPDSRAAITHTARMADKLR
compound,measurement,setting,value
"Nc1nc2c(-c3ccc(C(F)(F)F)c(S(N)(=O)=O)c3-c3nnn[nH]3)cccc2s1 [Example 561, 3-(2-aminobenzo[d]thiazol-4-yl)-2-(1H-tetrazol-5-yl)-6-(trifluoromethyl)benzenesulfonamide]",IC50,NDM-1; [4],0.153 nM
same,IC50,IMP-1; [5],0.993 nM
same,IC50,VIM-1; [6],0.434 nM
same,Escherichia coli MITC95,[1]; [7],0.668 µM
same,Klebsiella pneumoniae MITC95,[2]; [8],2.563 µM
same,Serratia marcescens MITC95,[3]; [9],0.09375 µM
"NC1CCN(c2ccc(C(F)(F)F)c(S(N)(=O)=O)c2-c2nnn[nH]2)CC1 [Example 778, 3-(4-amino-1-piperidyl)-2-(1H-tetrazol-5-yl)-6-(trifluoromethyl) benzenesulfonamide]",IC50,NDM-1; [10],147 nM
same,IC50,IMP-1; [10],160 nM
same,IC50,VIM-1; [11],0.688 nM
same,Escherichia coli MITC95,[1]; [12],3.125 µM
same,Klebsiella pneumoniae MITC95,[2]; [13],1.172 µM
same,Serratia marcescens MITC95,[3]; [14],1.563 µM
"Nc1nc2ccc(-c3ccc(CC4CCNCC4)c(S(N)(=O)=O)c3-c3nn[nH]n3)cc2[nH]1 [Example 610, 3-(2-amino-3H-benzo[d]imidazol-5-yl)-6-(piperidin-4-ylmethyl)-2-(2H-tetrazol-5-yl)benzenesulfonamide]",IC50,NDM-1; [4],2.92 nM
same,IC50,IMP-1; [5],114 nM
same,IC50,VIM-1; [6],6.39 nM
same,Escherichia coli MITC95,[1]; [7],0.3906 µM
same,Klebsiella pneumoniae MITC95,[2]; [8],1.563 µM
same,Serratia marcescens MITC95,[3]; [9],3.125 µM
"NS(=O)(=O)c1cccc(-c2ccc(CN3CC(F)(F)C3)cc2)c1-c1nnn[nH]1 [Example 372, 4′-[(3,3-difluoroazetidin-1-yl)methyl]-2-(1H-tetrazol-5-yl)biphenyl-3-sulfonamide]",IC50,NDM-1; [15],4.91 nM
same,IC50,IMP-1; [16],15.7 nM
same,IC50,VIM-1; [17],470 nM
same,Escherichia coli MITC95,[1]; [18],7.813 µM
same,Klebsiella pneumoniae MITC95,[2]; [19],>200 µM
same,Serratia marcescens MITC95,[3]; [20],1.563 µM
"NS(=O)(=O)c1cccc(-c2ccc(CN3CCC(O)CC3)cc2)c1-c1nnn[nH]1 [Example 394, 4′-[(4-hydroxypiperidin-1-yl)methyl]-2-(1H-tetrazol-5-yl)biphenyl-3-sulfonamide]",IC50,NDM-1; [15],11.3 nM
same,IC50,IMP-1; [16],195 nM
same,IC50,VIM-1; [17],658 nM
same,Escherichia coli MITC95,[1]; [18],2.344 µM
same,Klebsiella pneumoniae MITC95,[2]; [19],>200 µM
same,Serratia marcescens MITC95,[3]; [20],3.125 µM
"NCCN[C@H]1CC[C@@H](c2ccc(C(F)(F)F)c(S(N)(=O)=O)c2-c2nnn[nH]2)CC1 [Example 828, 3-((1s,4s)-4-((2-aminoethyl)amino)cyclohexyl)-2-(1H-tetrazol-5-yl)-6-(trifluoromethyl)benzenesulfonamide]",IC50,NDM-1; [10],8.29 nM
same,IC50,IMP-1; [10],72.9 nM
same,IC50,"VIM-1; VIM-1 IC50, fluorescence assay with CCF2-FA substrate",73.3 nM
same,Escherichia coli MITC95,[1]; [12],0.7813 µM
same,Klebsiella pneumoniae MITC95,[2]; [13],6.25 µM
same,Serratia marcescens MITC95,[3]; [14],1.563 µM
"NS(=O)(=O)c1cccc(-c2ccc(CNCCN3CCCC3)cc2)c1-c1nn[nH]n1 [Example 328, 4′-(((2-(pyrrolidin-1-yl)ethyl)amino)methyl)-2-(2H-tetrazol-5-yl)-[1,1′-biphenyl]-3-sulfonamide]",IC50,NDM-1; [15],20.4 nM
same,IC50,IMP-1; [16],325 nM
same,IC50,VIM-1; [17],473 nM
same,Escherichia coli MITC95,[1]; [18],1.563 µM
same,Klebsiella pneumoniae MITC95,[2]; [19],125 µM
same,Serratia marcescens MITC95,[3]; [20],6.25 µM
"NS(=O)(=O)c1c(C(F)(F)F)ccc(-c2ccc(C3CCN(C[C@@H]4CCCN4)CC3)cc2)c1-c1nnn[nH]1 [Example 669, 4′-{1-[(2S)-pyrrolidin-2-ylmethyl]piperidin-4-yl}-2-(1H-tetrazol-5-yl)-4-(trifluoromethyl)biphenyl-3-sulfonamide]",IC50,NDM-1; [4],3.92 nM
same,IC50,IMP-1; [5],0.688 nM
same,IC50,VIM-1; [21],8.99 nM
same,Escherichia coli MITC95,[1]; [7],2.344 µM
same,Klebsiella pneumoniae MITC95,[2]; [8],>200 µM
same,Serratia marcescens MITC95,[3]; [9],2.344 µM
"NC[C@H]1CC[C@@H](Cc2ccc(-c3ccc(N)nc3)c(-c3nnn[nH]3)c2S(N)(=O)=O)CC1 [Example 580, 6-(((1s,4s)-4-(aminomethyl)cyclohexyl)methyl)-3-(6-aminopyridin-3-yl)-2-(1H-tetrazol-5-yl)benzenesulfonamide]",IC50,NDM-1; [4],0.869 nM
same,IC50,IMP-1; [5],22.7 nM
same,IC50,VIM-1; [21],13.4 nM
same,Escherichia coli MITC95,[1]; [7],1.563 µM
same,Klebsiella pneumoniae MITC95,[2]; [8],12.5 µM
same,Serratia marcescens MITC95,[3]; [9],6.25 µM
"NS(=O)(=O)c1cccc(-c2ccc(CNC3CC(F)(F)C3)cc2)c1-c1nnn[nH]1 [Example 339, 4′-(((3,3-difluorocyclobutyl)amino)methyl)-2-(1H-tetrazol-5-yl)-[1,1′-biphenyl]-3-sulfonamide]",IC50,NDM-1; [15],4.54 nM
same,IC50,IMP-1; [16],42.3 nM
same,IC50,VIM-1; [17],611 nM
same,Escherichia coli MITC95,[1]; [18],0.5859 µM
same,Klebsiella pneumoniae MITC95,[2]; [19],>200 µM
same,Serratia marcescens MITC95,[3]; [20],1.563 µM
"N=C(N)c1nc2c(-c3ccc(C(F)(F)F)c(S(N)(=O)=O)c3-c3nnn[nH]3)cccc2s1 [Example 482, 4-(3-Sulfamoyl-2-(1H-tetrazol-5-yl)-4-(trifluoromethyl)phenyl)benzo[d]thiazole-2-carboximidamide]",IC50,NDM-1; [15],0.889 nM
same,IC50,IMP-1; [16],7.24 nM
same,IC50,VIM-1; [17],0.194 nM
same,Escherichia coli MITC95,[1]; [18],1.563 µM
same,Klebsiella pneumoniae MITC95,[2]; [19],3.125 µM
same,Serratia marcescens MITC95,[3]; [20],3.125 µM
"NC1(CN2CC(c3ccc(-c4ccc(C(F)(F)F)c(S(N)(=O)=O)c4-c4nnn[nH]4)cc3)C2)CC1 [Example 806, 4′-{1-[(1-aminocyclopropyl)methyl]azetidin-3-yl}-2-(1H-tetrazol-5-yl)-4-(trifluoromethyl)biphenyl-3-sulfonamide]",IC50,NDM-1; [10],4.68 nM
same,IC50,IMP-1; [10],7.67 nM
same,IC50,VIM-1; [11],5.02 nM
same,Escherichia coli MITC95,[1]; [12],6.25 µM
same,Klebsiella pneumoniae MITC95,[2]; [13],12.5 µM
same,Serratia marcescens MITC95,[3]; [14],6.25 µM
"NS(=O)(=O)c1c(C(F)(F)F)ccc(C2CCCCC2)c1-c1nnn[nH]1 [Example 491, 3-cyclohexyl-2-(1H-tetrazol-5-yl)-6-(trifluoromethyl)benzenesulfonamide]",IC50,NDM-1; [4],0.435 nM
same,IC50,IMP-1; [5],1.11 nM
same,IC50,VIM-1; [6],0.505 nM
same,Escherichia coli MITC95,[1]; [7],0.6406 µM
same,Klebsiella pneumoniae MITC95,[2]; [8],3.792 µM
same,Serratia marcescens MITC95,[3]; [9],0.0625 µM
"NS(=O)(=O)c1c(C(F)(F)F)ccc(-c2cnc3[nH]ccc3c2)c1-c1nnn[nH]1 [Example 708, 3-(1H-pyrrolo[2,3-b]pyridin-5-yl)-2-(1H-tetrazol-5-yl)-6-(trifluoromethyl)benzenesulfon-amide]",IC50,NDM-1; [4],0.38 nM
same,IC50,IMP-1; [5],1.6 nM
same,IC50,VIM-1; [6],0.144 nM
same,Escherichia coli MITC95,[1]; [7],1.563 µM
same,Klebsiella pneumoniae MITC95,[2]; [8],6.25 µM
same,Serratia marcescens MITC95,[3]; [9],6.25 µM
"NC1CCC(Cc2ccc(-c3ccnc4ccccc34)c(-c3nn[nH]n3)c2S(N)(=O)=O)CC1 (stereo not drawn) [Example 451, 6-(((1s,4s)-4-aminocyclohexyl)methyl)-3-(quinolin-4-yl)-2-(2H-tetrazol-5-yl)benzenesulfonamide]",IC50,NDM-1; [15],0.977 nM
same,IC50,IMP-1; [16],47.1 nM
same,IC50,VIM-1; [17],0.476 nM
same,Escherichia coli MITC95,[1]; [18],1.563 µM
same,Klebsiella pneumoniae MITC95,[2]; [19],3.125 µM
same,Serratia marcescens MITC95,[3]; [20],3.125 µM
"NC(=O)C1CCN(c2ccc(C(F)(F)F)c(S(N)(=O)=O)c2-c2nnn[nH]2)CC1 [Example 656, 1-[3-sulfamoyl-2-(1H-tetrazol-5-yl)-4-(trifluoromethyl)phenyl]piperidine-4-carboxamide]",IC50,NDM-1; [4],1.98 nM
same,IC50,IMP-1; [5],2.84 nM
same,IC50,VIM-1; [6],0.8 nM
same,Escherichia coli MITC95,[1]; [7],0.5781 µM
same,Klebsiella pneumoniae MITC95,[2]; [8],3.125 µM
same,Serratia marcescens MITC95,[3]; [9],0.125 µM
"NS(=O)(=O)c1c(C(F)(F)F)ccc(-c2cccc3c2CNC3=O)c1-c1nn[nH]n1 [Example 525, 3-(1-Oxoisoindolin-4-yl)-2-(2H-tetrazol-5-yl)-6-(trifluoromethyl)benzenesulfonamide]",IC50,NDM-1; [4],0.541 nM
same,IC50,IMP-1; [5],6.85 nM
same,IC50,VIM-1; [6],0.0897 nM
same,Escherichia coli MITC95,[1]; [7],3.125 µM
same,Klebsiella pneumoniae MITC95,[2]; [8],4.688 µM
same,Serratia marcescens MITC95,[3]; [9],12.5 µM
"NS(=O)(=O)c1cccc(C2CC2)c1-c1nnn[nH]1 [Example 157, 3-cyclopropyl-2-(1H-tetrazol-5-yl)benzenesulfonamide]",IC50,NDM-1; [10],28.7 nM
same,IC50,IMP-1; [10],561 nM
same,IC50,VIM-1; [11],1050 nM
same,Escherichia coli expressing NDM-1 (CLB 30016) MITC95,[1]; [22],0.3906 µM
same,Klebsiella pneumoniae expressing VIM-1 (IHMA 599644) MITC95,[2]; [22],50 µM
same,Serratia marcescens expressing IMP-1 (CL5741) MITC95,[3]; [22],6.25 µM
"NS(=O)(=O)c1cccc(-c2ccc(CNCCn3nccn3)cc2)c1-c1nnn[nH]1 [Example 383, 2-(1H-tetrazol-5-yl)-4′-({[2-(2H-1,2,3-triazol-2-yl)ethyl]amino}methyl)biphenyl-3-sulfonamide]",IC50,NDM-1; [15],4.66 nM
same,IC50,IMP-1; [16],51.6 nM
same,IC50,VIM-1; [17],269 nM
same,Escherichia coli MITC95,[1]; [18],1.563 µM
same,Klebsiella pneumoniae MITC95,[2]; [19],200 µM
same,Serratia marcescens MITC95,[3]; [20],1.563 µM
